According to patent publication US20100056791A1, “Pyrazolopyridine carboxamide derivative and phosphodiesterase (pde) inhibitor containing the same” (priority 2006, published 2010):

Columns and labels:
[1] = test system: histamine-induced bronchoconstriction; assay: Histamine-induced airway contraction reaction in guinea pigs; type: in vivo; settings: Cavia porcellus, iv, 0.5 min, i.v., 0.1 mg/kg administration (not in brackets), 30 seconds after administration, read-out: Inhibition ratio
Procedure: Guinea pigs were anesthetized with pentobarbital (30 mg/kg, i.p.). A cannula for intravenous administration, a cannula for collecting blood and measuring blood pressure, and a tracheal cannula were inserted into the left external jugular vein, right internal carotid artery, and trachea, respectively. The guinea pigs were maintained on artificial respiration under the conditions of 60 times/min and 10 mL/kg/stroke. The airflow from the side branch of the tracheal cannula was measured by a bronchospasm transducer (Ugo-Basile) and recorded on a computer via Power Lab (ADInstruments Japan). The guinea pigs were immobilized with gallamine (10 mg/kg, i.v.), and histamine was administered at 10-minute intervals (12.5 μg/kg, i.v.). […] We examined the inhibitory action of test compounds on histamine-induced bronchoconstriction 30 seconds after compounds administration. Bronchoconstriction was recorded as the amount of airflow, and the results were represented by the ratio of the maximum value of the histamine-induced airflow 30 seconds after the administration to the maximum value of the airflow before the administration. When the inhibition ratio≧90%, the results were represented by “+++.” When 90%>the inhibition ratio≧70%, the results were represented by “++.” When 70%>the inhibition ratio≧30%, the results were represented by “+.” The results shown in brackets are for 0.3 mg/kg administration, and the other results are for 0.1 mg/kg administration.

[2] = test system: LPS-induced leukocytes in bronchoalveolar lavage fluid; assay: LPS acute inflammation model in rats (total leukocytes in BALF); type: in vivo; settings: 1 mg/kg orally one hour before LPS inhalation, total leukocytes in BALF 3 hours after LPS
Procedure: 1 mg/kg of the compounds were orally administered to rats one hour before inhalation of lipopolysaccharide (LPS) from E. coli serotype 055:B5, rats were inhaled nebulizing LPS solution (50 mL) by nebulizer for 30 minutes. Then, 3 hours after the LPS inhalation, the rats were euthanized with 20% urethane (5 ml/rat, i.p.). 5 ml of physiological saline for bronchoalveolar lavage was injected into the bronchial tubes and alveoli through the airway, and the bronchial tubes and alveoli were washed 3 times using a 5 mL syringe. This procedure was repeated twice, and the solution was collected as bronchoalveolar lavage fluid (BALF). The collected BALF was centrifuged at 1,200 rpm and […] for 10 minutes (Hirtachi; himac CR 5 DL). The sediment was re-suspended in 10 mL of a 0.1% bovine serum albumin-physiological saline, and an equivalent amount of Turk's solution was added to the suspension to stain leukocytes. The total number of leukocytes was counted under a microscope to determine the inhibition ratio. When the inhibition ratio≧60%, the results were represented by “++.” When 60%>the inhibition ratio≧50%, the results were represented by “+.”

[3] = target: T1, PDE4B catalytic domain (PDE4Bcat) (Homo sapiens, UniProt Q07343); assay: Phosphodiesterase inhibitory activity ([3H]cAMP breakdown, recombinant PDE4Bcat); type: biochemical; settings: 30° C. 20 minutes, read-out: IC50(μmol/L) PDE4
T1 construct: The cDNA of PDE4B catalytic domain (hereinafter abbreviated as Cat) was isolated from human RNA by RT-PCR; made in house; host or cells: Sf9 insect cells (baculovirus, Gateway / Bac-to-Bac)
T1 sequence (Q07343 330-659 limits assumed): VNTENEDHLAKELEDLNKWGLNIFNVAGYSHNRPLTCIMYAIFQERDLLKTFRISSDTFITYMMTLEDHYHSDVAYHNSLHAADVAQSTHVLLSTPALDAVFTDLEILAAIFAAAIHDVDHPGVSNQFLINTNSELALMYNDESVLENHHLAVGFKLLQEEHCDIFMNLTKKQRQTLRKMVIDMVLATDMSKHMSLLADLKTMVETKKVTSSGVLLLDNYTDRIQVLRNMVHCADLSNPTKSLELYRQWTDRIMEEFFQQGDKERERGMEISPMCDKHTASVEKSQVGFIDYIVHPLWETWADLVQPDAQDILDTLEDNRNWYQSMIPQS
Excerpt: The cDNA of PDE4B catalytic domain (hereinafter abbreviated as Cat) was isolated from human RNA by RT-PCR. The isolated cDNA fragments were inserted into Sf9 insect cells using Gateway system (product of Invitrogen Corporation) and Bac-to-Bac (registered trademark) Baculovirus Expression system (product of Invitrogen Corporation) to express a target PDE protein. The recombinant PDE4Bcat was purified from the culture supernatants or cell extracts of Sf9 cells expressing high levels of the PDE protein by ion exchange chromatography and was used for the following experiments.
A 4 mmol/L solution of each test compound was serially diluted four-fold with a 15% DMSO solution to prepare solutions with concentrations of 15 nmol/L to 4 mmol/L (the final concentrations used in the experiments were 1.5 nmol/L to 400 μmol/L). 10 μL of the prepared test compound solutions, [3H] cAMP diluted with a buffer solution (40 mmol/L Tris-HCl (pH: 7.4), 10 mmol/L MgCl2), and 40 μL of the recombinant human PDE protein (2×10^−6 units, 1 unit is defined as the amount of PDE that breaks down 1 μmol/L of cAMP in one minute under the conditions of a pH of 7.5 and 30° C.) were added to a 96-well plate. The mixtures were reacted at 30° C. for 20 minutes. Then, the resultant mixtures were reacted at 65° C. for 2 minutes. Subsequently, 25 μL of 1 mg/mL5′-nucleotidase (Crotalus atrox venom, product of Sigma) was added to the mixtures, and the mixtures were reacted at 30° C. for 10 minutes. After completion of the reaction, 200 μL of a solution of Dowex (300 mg/mL Dowex 1×8-400 (product of Sigma Aldrich), 33% ethanol) was added to the mixtures, and the mixtures were shaken at 4° C. for 20 minutes. Subsequently, 200 μL of MicroScint 20 (product of Packard) was added to the mixtures, and measurement was performed using a scintillation counter (Topcount, product of Packard). IC50 values were calculated using Graph Pad Prism v3.03 (product of GraphPad Software). When […], the results were represented by “+.” When 0.1 μmol/L>the IC50 value, the results were represented by “++.”

| IC50 [3] [µmol/L] | SMILES | inhibition in vivo at 0.1 mg/kg [1] [%] | Inhibition ratio [2] |
| --- | --- | --- | --- |
| < 0.1 | CCc1cc2c(C(=O)Nc3c(Cl)cncc3Cl)ccc(OC)n2n1 [Example 9, 2-Ethyl-7-methoxypyrazolo[1,5-a]pyridine-4-carboxylic acid (3,5-dichloropyridin-4-yl)amide] | 70 to 90 | + (When 60%>the inhibition ratio≧50%, the results were represented by “+.”) |
| < 0.1 | COc1ccc(C(=O)Nc2c(Cl)cncc2Cl)c2cc(C(F)(F)F)nn12 [Example 16, 7-Methoxy-2-trifluoromethylpyrazolo[1,5-a]pyridine-4-carboxylic acid (3,5-dichloropyridin-4-yl)amide] | ≥ 90 | ++ (When the inhibition ratio≧60%, the results were represented by “++.”) |
| < 0.1 | CSc1ccc(C(=O)Nc2c(Cl)cncc2Cl)c2cc(C(F)(F)F)nn12 [Example 92, 7-Methylsulfanyl-2-trifluoromethylpyrazolo[1,5-a]pyridine-4-carboxylic acid (3,5-dichloropyridin-4-yl)amide] | 30 to 70 |  |
| < 0.1 | O=C(Nc1c(Cl)cncc1Cl)c1ccc(CO)n2nc(C(F)(F)F)cc12 [Example 105, 7-Hydroxymethyl-2-trifluoromethylpyrazolo[1,5-a]pyridine-4-carboxylic acid (3,5-dichloropyridin-4-yl)amide] | ≥ 90 |  |
| < 0.1 | CC(O)c1ccc(C(=O)Nc2c(Cl)cncc2Cl)c2cc(C(F)(F)F)nn12 (stereo not shown) [Example 107, 7-(1-Hydroxyethyl)-2-trifluoromethylpyrazolo[1,5-a]pyridine-4-carboxylic acid (3,5-dichloropyridin-4-yl)amide] | 70 to 90 | + (When 60%>the inhibition ratio≧50%, the results were represented by “+.”) |
